# Source: US9708314B2, “Heterocyclic amide compound” (NISSAN CHEMICAL INDUSTRIES, LTD., priority 2013, dated 2017)
# Legend:
# Assay type in all cases: in vivo
# [1] = tested on: Beta vulgaris ssp. vulgaris; experiment: Test Example 4: effect on crop by application to foliage (diluvial soil, plastic box); details: Application herbicide amount 320 g/ha; effect on crop
# Summary of the method: (§1)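 Plants were grown in sterilized diluvial soil in a greenhouse at 25-30° C for 14 days, then sprayed on stems and leaves with water-diluted emulsion formulation at set rates in g/ha. Weed control and crop injury were scored 3 weeks after treatment on a 0-5 herbicidal-ratio scale, from 0 (≤5%) to 5 (≥90%).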
# [2] = tested on: Brassica campestris L.; experiment: as above; details: Application herbicide amount 320 g/ha; effect on crop
# Summary of the method: as §1
# [3] = tested on: Glycine max; experiment: as above; details: Application herbicide amount 320 g/ha; effect on crop
# Summary of the method: as §1
# [4] = tested on: Triticum aestivum; experiment: as above; details: Application herbicide amount 320 g/ha; effect on crop
# Summary of the method: as §1
# [5] = tested on: directly sowed Oryza sativa; experiment: as above; details: Application herbicide amount 320 g/ha; effect on crop
# Summary of the method: as §1
# [6] = tested on: Zea mays; experiment: as above; details: Application herbicide amount 320 g/ha; effect on crop
# Summary of the method: as §1
# [7] = tested on: Echinochloa oryzacola Vasing.; experiment: Test Example 1: herbicidal activity, application before weed generation in submerged conditions; details: Application herbicide amount 320 g/ha; Seventeenth Table
# Summary of the method: (§2)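 Pre-emergence application to water surface of submerged pots (4 cm depth, alluvial soil) on sowing day, with 2.5-leaf rice transplanted; emulsion diluted to g/ha rates. Grown in greenhouse at 25–30 °C; 0–5 herbicidal/crop-effect score after three weeks.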
# [8] = tested on: Scirpus juncoides; experiment: as above; details: Application herbicide amount 320 g/ha; Seventeenth Table
# Summary of the method: as §2
# [9] = tested on: Monochoria vaginalis; experiment: as above; details: Application herbicide amount 320 g/ha; Seventeenth Table
# Summary of the method: as §2
# [10] = tested on: transplanted Oryza sativa; experiment: Test Example 1: effect on crop, application before weed generation in submerged conditions; details: Application herbicide amount 320 g/ha; Seventeenth Table
# Summary of the method: as §2
# [11] = tested on: Alopecurus myosuroides; experiment: Test Example 4: herbicidal effect by application to foliage (diluvial soil, plastic box); details: Application herbicide amount 320 g/ha
# Summary of the method: as §1
# [12] = tested on: Lolium multiflorum Lam.; experiment: as above; details: Application herbicide amount 320 g/ha
# Summary of the method: as §1
# [13] = tested on: Galium spurium; experiment: as above; details: Application herbicide amount 320 g/ha
# Summary of the method: as §1
# [14] = tested on: Chenopodium album; experiment: as above; details: Application herbicide amount 320 g/ha
# Summary of the method: as §1
# [15] = tested on: Apera spica-venti.; experiment: as above; details: Application herbicide amount 320 g/ha
# Summary of the method: as §1
# [16] = tested on: Avena fatua; experiment: as above; details: Application herbicide amount 320 g/ha
# Summary of the method: as §1
# [17] = tested on: Abutilon theophrasti; experiment: as above; details: Application herbicide amount 320 g/ha
# Summary of the method: as §1
# [18] = tested on: Setaria viridis; experiment: as above; details: Application herbicide amount 320 g/ha
# Summary of the method: as §1
# [19] = tested on: Echinochloa crus-galli var. crus-galli; experiment: as above; details: Application herbicide amount 320 g/ha
# Summary of the method: as §1
# [20] = tested on: Digitaria ciliaris; experiment: as above; details: Application herbicide amount 320 g/ha
# Summary of the method: as §1
# [21] = tested on: Veronica persica; experiment: as above; details: Application herbicide amount 320 g/ha
# Summary of the method: as §1
SMILES,f [1],g [2],c [3],e [4],d [5],b [6],A: Echinochloa oryzicola Vasing. (herbicidal effect grade) [7],B: Scirpus juncoides (herbicidal effect grade) [8],C: Monochoria vaginalis (herbicidal effect grade) [9],a: transplanted Oryza sativa (effect on crop grade) [10],J [11],K [12],Q [13],L [15],I [16],M [17],G [18],H [19],F [20],R [21],other results
Cc1nnc(NC(=O)c2ccc(C(F)(F)F)n3c(-c4cc5ccccc5n4C)nnc23)o1 [1-059],0 (Herbicidal ratio of 5% or less (almost no effect)),0 (Herbicidal ratio of 5% or less (almost no effect)),0 (Herbicidal ratio of 5% or less (almost no effect)),0 (Herbicidal ratio of 5% or less (almost no effect)),0 (Herbicidal ratio of 5% or less (almost no effect)),0 (Herbicidal ratio of 5% or less (almost no effect)),2 (Herbicidal ratio of 20% or more and less than 40%),3 (Herbicidal ratio of 40% or more and less than 70%),2 (Herbicidal ratio of 20% or more and less than 40%),0 (Herbicidal ratio of 5% or less (almost no effect)),0 (Herbicidal ratio of 5% or less (almost no effect)),0 (Herbicidal ratio of 5% or less (almost no effect)),0 (Herbicidal ratio of 5% or less (almost no effect)),0 (Herbicidal ratio of 5% or less (almost no effect)),0 (Herbicidal ratio of 5% or less (almost no effect)),4 (Herbicidal ratio of 70% or more and less than 90%),0 (Herbicidal ratio of 5% or less (almost no effect)),2 (Herbicidal ratio of 20% or more and less than 40%),0 (Herbicidal ratio of 5% or less (almost no effect)),2 (Herbicidal ratio of 20% or more and less than 40%),O [14]: 5 (Herbicidal ratio of 90% or more (almost completely withered))
COCCOC(=O)Cc1nnc2c(C(=O)Nc3nnc(C)o3)ccc(C(F)(F)F)n12 [1-060],5 (Herbicidal ratio of 90% or more (almost completely withered)),4 (Herbicidal ratio of 70% or more and less than 90%),0 (Herbicidal ratio of 5% or less (almost no effect)),3 (Herbicidal ratio of 40% or more and less than 70%),4 (Herbicidal ratio of 70% or more and less than 90%),3 (Herbicidal ratio of 40% or more and less than 70%),4 (Herbicidal ratio of 70% or more and less than 90%),4 (Herbicidal ratio of 70% or more and less than 90%),3 (Herbicidal ratio of 40% or more and less than 70%),2 (Herbicidal ratio of 20% or more and less than 40%),2 (Herbicidal ratio of 20% or more and less than 40%),2 (Herbicidal ratio of 20% or more and less than 40%),3 (Herbicidal ratio of 40% or more and less than 70%),1 (Herbicidal ratio of 5% or more and less than 20%),3 (Herbicidal ratio of 40% or more and less than 70%),4 (Herbicidal ratio of 70% or more and less than 90%),3 (Herbicidal ratio of 40% or more and less than 70%),5 (Herbicidal ratio of 90% or more (almost completely withered)),5 (Herbicidal ratio of 90% or more (almost completely withered)),5 (Herbicidal ratio of 90% or more (almost completely withered)),O [14]: 5 (Herbicidal ratio of 90% or more (almost completely withered))
CC(=O)OCc1nnc2c(C(=O)Nc3nnc(C)o3)ccc(C(F)(F)F)n12 [1-062],4 (Herbicidal ratio of 70% or more and less than 90%),4 (Herbicidal ratio of 70% or more and less than 90%),0 (Herbicidal ratio of 5% or less (almost no effect)),2 (Herbicidal ratio of 20% or more and less than 40%),3 (Herbicidal ratio of 40% or more and less than 70%),3 (Herbicidal ratio of 40% or more and less than 70%),3 (Herbicidal ratio of 40% or more and less than 70%),2 (Herbicidal ratio of 20% or more and less than 40%),1 (Herbicidal ratio of 5% or more and less than 20%),0 (Herbicidal ratio of 5% or less (almost no effect)),1 (Herbicidal ratio of 5% or more and less than 20%),0 (Herbicidal ratio of 5% or less (almost no effect)),4 (Herbicidal ratio of 70% or more and less than 90%),1 (Herbicidal ratio of 5% or more and less than 20%),3 (Herbicidal ratio of 40% or more and less than 70%),5 (Herbicidal ratio of 90% or more (almost completely withered)),3 (Herbicidal ratio of 40% or more and less than 70%),5 (Herbicidal ratio of 90% or more (almost completely withered)),5 (Herbicidal ratio of 90% or more (almost completely withered)),4 (Herbicidal ratio of 70% or more and less than 90%),O [14]: 5 (Herbicidal ratio of 90% or more (almost completely withered))
COCCSc1nnc2c(C(=O)Nc3nnc(C)o3)ccc(C(F)(F)F)n12 [1-063],5 (Herbicidal ratio of 90% or more (almost completely withered)),3 (Herbicidal ratio of 40% or more and less than 70%),3 (Herbicidal ratio of 40% or more and less than 70%),2 (Herbicidal ratio of 20% or more and less than 40%),4 (Herbicidal ratio of 70% or more and less than 90%),0 (Herbicidal ratio of 5% or less (almost no effect)),5 (Herbicidal ratio of 90% or more (almost completely withered)),4 (Herbicidal ratio of 70% or more and less than 90%),3 (Herbicidal ratio of 40% or more and less than 70%),0 (Herbicidal ratio of 5% or less (almost no effect)),2 (Herbicidal ratio of 20% or more and less than 40%),2 (Herbicidal ratio of 20% or more and less than 40%),3 (Herbicidal ratio of 40% or more and less than 70%),3 (Herbicidal ratio of 40% or more and less than 70%),2 (Herbicidal ratio of 20% or more and less than 40%),4 (Herbicidal ratio of 70% or more and less than 90%),5 (Herbicidal ratio of 90% or more (almost completely withered)),5 (Herbicidal ratio of 90% or more (almost completely withered)),5 (Herbicidal ratio of 90% or more (almost completely withered)),5 (Herbicidal ratio of 90% or more (almost completely withered)),O [14]: 5 (Herbicidal ratio of 90% or more (almost completely withered))
C=CCSc1nnc2c(C(=O)Nc3nnc(C)o3)ccc(C(F)(F)F)n12 [1-064],4 (Herbicidal ratio of 70% or more and less than 90%),3 (Herbicidal ratio of 40% or more and less than 70%),0 (Herbicidal ratio of 5% or less (almost no effect)),0 (Herbicidal ratio of 5% or less (almost no effect)),3 (Herbicidal ratio of 40% or more and less than 70%),0 (Herbicidal ratio of 5% or less (almost no effect)),5 (Herbicidal ratio of 90% or more (almost completely withered)),4 (Herbicidal ratio of 70% or more and less than 90%),3 (Herbicidal ratio of 40% or more and less than 70%),0 (Herbicidal ratio of 5% or less (almost no effect)),1 (Herbicidal ratio of 5% or more and less than 20%),1 (Herbicidal ratio of 5% or more and less than 20%),3 (Herbicidal ratio of 40% or more and less than 70%),1 (Herbicidal ratio of 5% or more and less than 20%),1 (Herbicidal ratio of 5% or more and less than 20%),3 (Herbicidal ratio of 40% or more and less than 70%),4 (Herbicidal ratio of 70% or more and less than 90%),5 (Herbicidal ratio of 90% or more (almost completely withered)),5 (Herbicidal ratio of 90% or more (almost completely withered)),3 (Herbicidal ratio of 40% or more and less than 70%),
